Read-outs that look alike come from different tables or passages of the source.
Experiments:
[1] = tested on: non-senescent WI-38 cells (NC); assay: Cell viability (PI flow cytometry), LD50 in non-senescent WI-38 cells; format: cell-based, human; conditions: for CC50: WI-38 fibroblasts, non-senescent, LD50 by Probit Analysis, read-out: LD50 (μM) for non-senescent cells (NC)
Procedure: (§1) Mouse embryonic fibroblasts (MEF) were isolated from mouse embryos as described^1. All cells were cultured in a complete medium (CM) (Dulbecco's Modified Eagle Medium supplemented with 10% fetal bovine serum [FBS], 100 U/ml penicillin, and 100 μg/ml streptomycin [all from Atlanta Biologicals, Norcross, Ga., and USA]) in a humidified incubator at 37° C. and 5% CO2. Low passages of WI-38 cells (<25), IMR-90 (<25), REC cells (<25) and MEF (<3) were used as non-senescent controls or for induction of senescence to avoid replicative senescence. […] To induce senescence by expression of oncogenic Ras (Ras^V12), WI-38 cells were infected with the retroviruses pBabe-H-Ras or pBabe-puro (control) (Addgene, Cambridge, Mass., UAS)^2, 3. […] Senescent cells were maintained in culture for a few days, changing the culture medium every 3 days until use. For in vitro cell culture experiments, we usually repeated the experiments for at least three times to ensure the reproducibility of the data. In addition, the repeats of the experiments for three times will allow us to obtain 3 independent observations for statistical analysis.
(§2) Flow cytometry: Non-senescent and senescent cells were seeded into wells of 24- or 48-well at about 70% of confluence. […] Both quiescent non-senescent cells and permanently growth arrested senescent cells were treated with vehicle (0.1% DMSO or PBS) or increasing concentrations of the compounds listed in Table 1 for various durations. […] After incubated with propidium iodide (PI 100 ng/ml) in PBS at room temperature for 1 min, cells were centrifuged at 1200 rpm for 6 min and then resuspended in PBS with 2% of FBS for analysis by a BD LSR II flow cytometer (BD Biosciences, San Jose, Calif., USA). Viable cells (PI^− cells) were numerated by flow cytometry at a constant flow rate and calculated as a percentage of control cells treated with vehicle using the formula: percentage of control=(Ndrug/NC)×100, where Ndrug and NC represent the absolute number of PI^− viable cells of drug-treated and vehicle-treated cells, respectively.
(§3) MTT (3-[4,5-dimethylthiazol-2-yl]-2,5 diphenyl tetrazolium bromide) assay: Cells were harvested, washed and resuspended in CM and added to wells of 24- or 48-well plates as described above. […] After 4 h at 37° C., the formazan was solubilized by lysing the cells with 300 μl of DMSO. Absorbance of formazan was measured at 595 nm using a Microplate Reader (BioTek, Winooski, Vt., USA). Cell viability was calculated in the method as previously described^4.
(§4) Trypan blue exclusion assay: Cells were harvested, washed and resuspended in CM and added to wells of a 6-well plate as described above. […] Living cells stained negative for trypan blue and were counted under light microscopy.
(§5) Briefly, Probit (set as y) was determined by looking up their correspondence to the % responded in Finney's table. The log of the compound concentrations was used as x. By fitting a line of regression, we produce the formula y=ax+b.

[2] = tested on: IR-induced senescent WI-38 cells (SC); assay: Cell viability (PI flow cytometry), LD50 in IR-induced senescent WI-38 cells; format: cell-based, human
Procedure: as §1, §2, §3, §4, §5

[3] = tested on: senescent WI38 cells induced by expression of oncogenic Ras (Ras-SC); assay: Cell viability, LD50 in oncogenic Ras-induced senescent WI-38 cells; format: cell-based, human; conditions: Table 2
Procedure: (§6) Human WI-38 fibroblasts (WI38 cells, #CCL-75™), human IMR-90 fibroblasts (IMR90 cells, #CCL-186™), human renal epithelial cells (REC cells, #PCS-400-012™) were obtained from ACTT (Manassas, Va., USA). Mouse embryonic fibroblasts (MEF) were isolated from mouse embryos as described^1. All cells were cultured in a complete medium (CM) (Dulbecco's Modified Eagle Medium supplemented with 10% fetal bovine serum [FBS], 100 U/ml penicillin, and 100 μg/ml streptomycin [all from Atlanta Biologicals, Norcross, Ga., and USA]) in a humidified incubator at 37° C. and 5% CO2. Low passages of WI-38 cells (<25), IMR-90 (<25), REC cells (<25) and MEF (<3) were used as non-senescent controls or for induction of senescence to avoid replicative senescence. To induce replicative senescence, WI-38 cells were subcultivated until cell division ceased after about 38 passages or 60 population doublings (FIG. 5)^2. […]
Flow cytometry: Non-senescent and senescent cells were seeded into wells of 24- or 48-well at about 70% of confluence. […] Viable cells (PI^− cells) were numerated by flow cytometry at a constant flow rate and calculated as a percentage of control cells treated with vehicle using the formula: percentage of control=(Ndrug/NC)×100, where Ndrug and NC represent the absolute number of PI^− viable cells of drug-treated and vehicle-treated cells, respectively. […]

[4] = tested on: human renal epithelial cells (REC); assay: Cell viability, IR-SC vs NC, renal epithelial cells; format: cell-based; conditions: increasing concentrations, 72 h
Procedure: as §6
Flow cytometry: Non-senescent and senescent cells were seeded into wells of 24- or 48-well at about 70% of confluence. […] Viable cells (PI^− cells) were numerated by flow cytometry at a constant flow rate and calculated as a percentage of control cells treated with vehicle using the formula: percentage of control=(Ndrug/NC)×100, where Ndrug and NC represent the absolute number of PI^− viable cells of drug-treated and vehicle-treated cells, respectively.

CC1(C)CCC(c2ccc(Cl)cc2)=C(CN2CCN(c3ccc(C(=O)NS(=O)(=O)c4ccc(N[C@H](CCN5CCOCC5)CSc5ccccc5)c(S(=O)(=O)C(F)(F)F)c4)cc3)CC2)C1 [ABT263, navitoclax]
CC50 ([1]; Homo sapiens): 12.6 µM
LD50 ([1]; Table 2, NC WI38 cells): 12.60 µM
CC50 [1]: 12.60 µM
viable cells by MTT assay and trypan blue exclusion test ([1]; non-senescent WI-38, increasing concentrations, 72 h): is not cytotoxic to non-senescent WI-38 cells
IC50 ([2]; Homo sapiens, WI-38 fibroblasts, IR-induced senescent, LD50 by Probit Analysis, read-out: LD50 (μM) for senescent cells (SC)): 0.61 µM
LD50 ([2]; Table 2, IR-SC WI38 cells): 0.61 µM
viable cells by MTT assay and trypan blue exclusion test ([2]; senescent WI-38, increasing concentrations, 72 h): can dose-dependently kill senescent WI-38 fibroblasts
SCs killed ([2]; ~24 h, 1.25 μM ABT263, IR-SC WI-38): 70-80%
LD50 [3]: 0.62 µM
viable cells, IR-SC vs NC [4]: kills IR-induced senescent cells (IR-SC) but not non-senescent cells (NC)

— US11331328B2, “Compositions and methods for inhibiting antiapoptotic Bcl-2 proteins as anti-aging agents” (priority 2014, dated 2022)
